Entries after “also recorded” stand apart in the source; their conditions may differ.
Assays:
[1] = molecular target: T1, PCNA (Homo sapiens, UniProt P12004); conditions: cited from earlier work
T1 construct: made in house; host or cells: Escherichia coli BL21(DE3), pT7-PCNA

[2] = molecular target: T2, CDK4/cyclin D1 (Homo sapiens, UniProt P11802+P24385); assay: CDK4/cyclin D1 kinase assay (in vitro pRb phosphorylation); format: biochemical
T2 construct: His6 (N); made in house; host or cells: CDK4: Sf9 insect cells (baculovirus); GST-pRb: E. coli BL21(DE3)
T2 sequence (P11802 whole entry): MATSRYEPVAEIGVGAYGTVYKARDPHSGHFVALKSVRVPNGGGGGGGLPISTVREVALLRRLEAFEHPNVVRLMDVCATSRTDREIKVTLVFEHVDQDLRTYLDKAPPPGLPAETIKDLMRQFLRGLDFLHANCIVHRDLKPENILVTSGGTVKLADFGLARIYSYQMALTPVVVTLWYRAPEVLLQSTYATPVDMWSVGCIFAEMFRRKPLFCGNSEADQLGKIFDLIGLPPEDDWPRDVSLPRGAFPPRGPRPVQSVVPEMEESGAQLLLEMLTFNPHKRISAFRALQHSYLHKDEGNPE
T2 sequence (P24385 whole entry): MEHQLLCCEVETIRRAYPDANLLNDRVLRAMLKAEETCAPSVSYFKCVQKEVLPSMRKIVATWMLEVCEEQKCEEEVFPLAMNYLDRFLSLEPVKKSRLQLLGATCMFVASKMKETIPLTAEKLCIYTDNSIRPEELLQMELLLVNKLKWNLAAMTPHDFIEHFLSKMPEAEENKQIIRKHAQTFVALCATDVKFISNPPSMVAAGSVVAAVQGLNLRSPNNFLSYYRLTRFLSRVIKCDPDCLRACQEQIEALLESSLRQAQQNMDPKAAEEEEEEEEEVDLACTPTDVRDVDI
Method: For the 96-well format in vitro kinase assay GST-pRb was used immobilized on glutathione-Sepharose beads.
CDK4/cyclin D1 kinase assay: The reaction mixture consisted of 1 μM of CDK4 and cyclin D1, 5 μg GST-pRb, 100 mM ATP and 0.2 μCi ^32P-ATP. The kinase reaction was carried out for 10 min at 30° C., the reaction was stopped with the addition of sample buffer and after heating the sample was resolved on 10% SDS-PAGE. The aouthoradiography images were scanned and quantified using QuickScan software. The IC50 values were determined using GraFit software.

[3] = molecular target: T2, CDK4/cyclin D1; conditions: background; cited from earlier work
[4] = test system: PCNA-dependent DNA replication; conditions: cited from earlier work

T1 sequence (P12004 whole entry): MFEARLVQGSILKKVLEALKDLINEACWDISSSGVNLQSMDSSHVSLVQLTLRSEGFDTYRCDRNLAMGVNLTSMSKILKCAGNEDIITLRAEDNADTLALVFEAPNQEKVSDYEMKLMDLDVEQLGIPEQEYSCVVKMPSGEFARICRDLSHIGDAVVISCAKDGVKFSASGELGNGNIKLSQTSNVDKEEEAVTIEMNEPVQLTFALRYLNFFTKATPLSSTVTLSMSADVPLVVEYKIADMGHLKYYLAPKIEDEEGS

Substance | Ka of binding to PCNA ([1]; isothermal calorimetry) | CDK/cyclin inhibitory activity [2] | inhibition of CDK function [3] | affinity for PCNA (in words) [1] | enthalpy of binding to PCNA ([1]; isothermal calorimetry) | entropic contribution to PCNA binding ([1]; isothermal calorimetry) | Kd ([1]; read-out: Kd of binding to PCNA) | inhibition of DNA replication in vitro (in words) [4]
p21D149A: site point mutant p21(141-160)D149A (KRRQTSMTAFYHSKRRLIFS; UniProt P38936 141-160, looked up, variant D149A) [reference compound] | 7.8×10^5 | – | – | – | – | – | – | –
SAVLQKKITDYFHPKK [CM peptide, hybrid containing 12 residues from the C-terminus of Pogo, flanked by 4 residues from DNA ligase I] | – | devoid of CDK/cyclin inhibitory activity; also recorded: does not inhibit CDK function | unable to inhibit CDK function | nanomolar affinity; also recorded: affinity very similar to that of the p21(141-160) peptide | -9.52 kcal/mol | 0.61 cal mol^−1 ° C.^−1 | 100 nM | potency very similar to that of p21(141-160); also recorded: efficient inhibitor

— patent US20080167385A1 (priority 2004, published 2008)
